Experimental data as given in PMC5775280, “Functional Characterization and Signaling Systems of Corazonin and Red Pigment Concentrating Hormone in the Green Shore Crab, Carcinus maenas” (Frontiers in Neuroscience, 2018).
Peptide text beside a SMILES is read from it.

Tests used:
[1] = biological target: T1, C. maenas CRZR (corazonin receptor) (Carcinus maenas, UniProt A0A2L0WQE5); test: Aequorin luminescence Ca2+ mobilization in CHO-K1-Aeq cells transiently expressing CRZR; assay type: cell-based
T1 sequence (A0A2L0WQE5 1-617): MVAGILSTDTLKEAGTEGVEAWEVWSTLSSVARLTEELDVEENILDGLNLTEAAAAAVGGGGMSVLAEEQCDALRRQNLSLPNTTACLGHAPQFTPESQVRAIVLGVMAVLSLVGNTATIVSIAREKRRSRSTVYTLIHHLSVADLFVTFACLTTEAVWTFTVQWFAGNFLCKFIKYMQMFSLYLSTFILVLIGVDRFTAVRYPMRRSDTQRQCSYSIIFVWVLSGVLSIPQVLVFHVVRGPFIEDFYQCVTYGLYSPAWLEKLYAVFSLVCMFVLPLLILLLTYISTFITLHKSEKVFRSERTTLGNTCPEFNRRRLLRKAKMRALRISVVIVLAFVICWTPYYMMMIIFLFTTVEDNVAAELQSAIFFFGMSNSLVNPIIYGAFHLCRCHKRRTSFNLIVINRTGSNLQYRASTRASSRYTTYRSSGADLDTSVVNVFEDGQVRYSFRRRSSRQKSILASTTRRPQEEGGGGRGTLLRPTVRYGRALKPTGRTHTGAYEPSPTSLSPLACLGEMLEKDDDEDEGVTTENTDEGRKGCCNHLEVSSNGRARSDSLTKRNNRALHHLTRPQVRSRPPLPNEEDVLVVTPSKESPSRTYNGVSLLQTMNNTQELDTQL
Method: Chinese hamster ovary (CHO-K1) cells containing stably expressed apoaequorin (Perkin Elmer, Boston, MA) and either Gα16 or Gq subunit (control cells) were cultured in Dulbecco's Modified Eagle Medium (DMEM) F-12 Nutrient Mixture GlutaMax (Gibco®) supplemented with 10% fetal bovine serum (Gibco®). Cells were maintained in vented T75 flasks at 37°C in 5% CO2.
Cells grown in a monolayer to approximately 60% confluency in T75 flasks were transfected with pcDNA3.1 constructs using FugeneHD (Promega) according to the manufacturer's recommendations. Briefly, transfection medium was prepared by combining 800 μl Opti-MEM® (Gibco) with 10 μg vector and 30 μl Fugene HD in a 2 ml polystyrene tube and incubated for 10 min at room temperature. The transfection reagent was added to 5 ml of fresh culture media and the cells incubated overnight at 37°C in 5% CO2. After 24 h, an additional 10 ml of culture media were added to the flasks and the cells returned to 37°C at 5% CO2 for a further overnight incubation.
On the day of the assay, cells were detached from the culture flask by incubating for 12 min in 5 ml 0.2% EDTA in PBS. The cells were washed with 10 ml DMEM clear DMEM/F-12 containing L-glutamine, 15 mM HEPES and moved to 50 ml centrifuge tubes. Cells were centrifuged for 5 min at 260 g and resuspended to a concentration of 5 × 10^6 cells ml^−1 in 0.2 μm filtered BSA medium (DMEM/F-12 containing L-glutamine, 15 mM HEPES + 0.1% BSA). Coelenterazine h (Invitrogen, Paisley, UK) was added to a concentration of 5 μM and the cells incubated for 4 h in the dark at room temperature whilst gently rocking. The cells were diluted 10-fold and incubated for a further 60 min before use in the assay. Synthetic peptides (GeneCust, Dudelange, Luxembourg) were reconstituted in 30% acetonitrile, dried in small aliquots by vacuum centrifugation and subsequently redissolved in BSA medium. Fifty microliter aliquots were then dispensed into quadruplicate wells of a white 96-well plate (OptiPlate, PerkinElmer). Cell suspensions were gently stirred and injected in 50 μl aliquots into each well using a Mithras LB 940 microplate reader (Berthold Technologies, Bad-Wildbad, Germany) and light emission (Ca^2+ response) recorded for 30 s. Cells were then lysed by injection of 0.3% Triton-X in BSA medium and light emission recorded for a further 10 s to measure total Ca^2+ response. BSA medium was used for blank measurements (6 replicate wells per plate) and mock transfection with empty vectors carried out for negative controls. Data was analyzed using MikroWin v5.18 (Mikrotek Laborsysteme GmbH) and SigmaPlot v.13 (Systat Software, Inc.). Receptor response was normalized against total Ca^2+ response.

[2] = tested on: red and black epidermal chromatophores, dactyl of the 5th walking leg; test: Chromatophore pigment migration bioassay in vivo; set-up: species or system Carcinus maenas; details: injection after 40 min dispersion with 5 pmol PDH, 0.1–100 pmol/crab for RPCH or AKH, 100 pmol/crab for CRZ or ACP, scored 5 and 20 min after injection
Method: Pigmentary effector activity of […], Locusta migratoria AKH-I, and ACP were measured in vivo, using small (15-20 mm carapace width) C. maenas. Crabs were firstly adapted to a white background, light intensity 300 lx for 1 h. Pigment dispersion of red and black chromatophores in the […] of the 5th walking leg were microscopically observed and indices of dispersion scored according to Hogben and Slome ([1931]). Red and black chromatophores were firstly fully dispersed by injection of 5 pmol C. maenas pigment dispersing hormone ([…]) in 10 μl saline into the hypobranchial sinus, using hand-drawn glass microcapillaries. Chromatophore dispersion indices were scored at 0, 20, 40 min. Peptides were then injected and chromatophores subsequently scored after 5 and 20 min.

CC(C)C[C@H](NC(=O)[C@@H]1CCC(=O)N1)C(=O)N[C@@H](CC(N)=O)C(=O)N[C@@H](Cc1ccccc1)C(=O)N[C@@H](CO)C(=O)N1CCC[C@H]1C(=O)NCC(=O)N[C@@H](Cc1c[nH]c2ccccc12)C(N)=O [RPCH] (HELM PEPTIDE1{[Glp].L.N.F.S.P.G.W.[am]}$$$$V2.0)
binding to CRZR at extremely high concentrations ([1]; 0.6–20 μM): some dose-dependent binding
EC50 ([1]; CHO-K1-Aeq cells (without Gα16) transiently expressing CRZR, luminescence response normalized to total Ca2+ response, dose response curves, means of n = 4): > 20 µM
pigment migration (concentration) in red and black epidermal chromatophores [2]: dose-dependent concentration of pigment in the red (but not the black) chromatophores
